Measured values published in patent US20160050932A1, “SYNERGISTIC COMBINATION OF A CHLOROTOLURON COMPOUND AND TERBUTRYN FOR DRY FILM PROTECTION” (Rohm and Haas Company, priority 2013, published 2016).

Columns and labels:
Chlorella sp. ATCC 7516 = assay: Algal efficacy testing of dry paint films (modified ASTM 5589, 6-well plates); format: cell-based; details: 3 weeks; for % inhibition: at the listed total conc, versus blank sample; for Total conc (lowest concentration passing, pass level ≧75% inhibition): total biocide in acrylic/silicone paint, dry film on filter paper
Description: (§1) Slurries containing 33% antimicrobial active ingredient (chlorotoluron) and 45% antimicrobial ingredient terbutryn were post added to a white, acrylic/silicone based outdoor paint free of biocides to give a total active ingredient concentration of 10000 and 1000 ppm respectively. These paints were then diluted with an antimicrobial free acrylic/silicone based paint and mixed to prepare targeted concentrations of antimicrobial compounds for the testing. The total biocides concentrations tested were 125, 250, 500, 1000, 2000 and 5000 ppm. After biocides addition or dilution, the paints were mixed 90 seconds with the horse power shaker (AXEL 75M3372/Agitateur SO-10MI) until uniformity was achieved. Paints containing different antimicrobial compounds at the same levels were mixed together in order to obtain the desired ratio of antimicrobial compounds. After one day, the paints were applied to Schleicher & Schuell filter paper at 280 μm wet film thickness and dried for 3 days at room temperature avoiding direct exposure to sunlight. Square discs (1.6 cm×1.6 cm) were cut out from each panel and were used as the substrate for algal efficacy tests. This sample size allowed for an agar border when the sample disc was placed into the well of the test plate.
(§2) Algal efficacy was tested according to modified ASTM 5589 which is a standard accelerated test method for determining resistance of various coatings (including paints) to algal defacement. To accommodate for high-throughput screening, this method was scaled down from petri dishes to 6-well plates. Bold Modified Basal Freshwater Nutrient Solution was used as growth medium. A single coated filter paper coupon was placed with a pair of sterile forceps at the center of the agar plug (on top) with the painted surface facing upwards. Algal inoculums were prepared by mixing equal concentrations (1×10^6 cfu/ml) and equal volumes of exponentially growing algae cultures.
(§3) Each well that contains a tested coupon was inoculated with 1750 μl of algal suspensions (1×10^6 cfu/ml) making sure that the whole surface (paint film as well as the agar surrounding it) was evenly covered. The plates were incubated at room temp (21° C.-25° C.) with cyclic exposure to light and dark phases, for a period of three weeks. The total area inhibited was evaluated at the end of each week according to percent area covered in 5% increments
(§4) At the end of the three week incubation period, the samples were scored for percent inhibition regarding color intensity compared to the blank sample.
(§5) The SI is calculated based on F. C. Kull et.
(§6) SI value of <1 in the formula indicates a synergism of the blended biocides exists.
(§7) The minimal targeted inhibition was set at 75%, meaning a coupon with at least 75% algal growth inhibition was considered as a pass.

[1] = system: Stichococcus bacillaris SAG 379-1a / CCAP 379/1a; assay: as above; format: cell-based; details: 3 weeks; for % inhibition: at the listed total conc, versus blank sample; for Total conc (lowest concentration passing, pass level ≧75% inhibition): total biocide in acrylic/silicone paint, dry film on filter paper
Description: as §1, §2, §3, §4, §5, §6, §7

SMILES	% inhibition (Chlorella sp. ATCC 7516) [%]	Total conc (lowest concentration passing, pass level ≧75% inhibition) (Chlorella sp. ATCC 7516) [ppm]	% inhibition [1] [%]	Total conc (lowest concentration passing, pass level ≧75% inhibition) [1] [ppm]
Cc1ccc(NC(=O)N(C)C)cc1Cl [Chlorotoluron, N′-(3-chloro-4-methylphenyl)-N,N-dimethylurea]	100	1000	90	500
CCNc1nc(NC(C)(C)C)nc(SC)n1 [Terbutryn, N^2-tert-butyl-N^4-ethyl-6-methylthio-1,3,5-triazine-2,4-diamine]	90	500	80	2000
